From USRE35862E, “Delivery systems for pharmacological agents encapsulated with proteinoids” (Emisphere Technologies, Inc., priority 1994, dated 1998)
Read-outs that look alike come from different tables or passages of the source.

Experiments:
blood glucose [1] = assay: Blood glucose in normal rats, Table 1 (Example 2c); type: in vivo, rat; details: Group Four
Method: The Group Two rats have between 1.5 and 1.7 ml of the suspension similarly administered. The rats of Group Three receive 1.0 ml of distilled water similarly administered. The rats of Group Four similarly receive 25.0 mg of porcine insulin in 1.0 ml of distilled water. Both before and during the experiment, all animals are permitted free access to water and their normal feed. Blood glucose levels are measured on samples drawn from the tail at specific intervals after treatment and group averages are recorded in Table 1 as milligrams of glucose per deciliter of blood (mg/dl).

blood glucose [2] = assay: Blood glucose in normal rats, Table 2 (Example 4); type: in vivo, rat; details: 1 ml/500 g by gavage
Method: Doses of the resulting suspension, which contain no insulin within the microspheres, are referred to as "microspheres with external insulin". Dosages of the 2.5 mg/ml solution of porcine insulin alone are referred to as "raw insulin".
Twelve male white rats, each weighing approximately 500 g and havinng a normal blood glucose level, are arbitrarily assigned to two groups of three animals and a third group of six animals. The three animals of group A are administered the insulin filled microspheres by gavage and the three animals of group B are similarly administered the microspheres with external insulin. The six animals of group C similarly receive the raw insulin. All dosages are 1 ml/500 g of body weight and all animals are tested for blood glucose immediately before dosage and at intervals thereafter.

blood glucose [3] = test system: blood glucose
Method: Diabetes mellitis is induced in rats weighing approximately 300 g by giving each a 75 mg/kg body weight intravenous injection of streptozotocin. Ten rats which are observed to show consistently high blood glucose levels, polyuria and polydipsia and must be maintained on subcutaneous injections of porcine insulin are selected for this experiment.
The remaining six diabetic rats are arbitrarily assigned to three groups of two animals. […] The animals of the second and third groups receive subcutaneous injections of 0.25 mg (6.5 I.U.) and 0.125 mg (3.25 I.U.), respectively, of porcine insulin. Blood glucose measurements are made on all animals immediately before dosing and at intervals thereafter. The animal groups are crossed over twice at one week intervals, so that all of the animals receive each of the insulin treatments.

blood glucose [4] = details: oral, far larger dosages per unit of body weight, unprotected, laboratory animals and humans; cited from earlier work
[5] = insulin in solution, even when refrigerated; cited from earlier work
[6] = test system: Time to coagulation (fibrin clot); assay: Activated Partial Thromboplastin Time (APTT) test, Table 6 (Example 8b); type: in vivo, rat
Method: Seven male white rats, each weighing approximately 600 g, are deprived of food for 12 hours before the start of the experiment. Rat #1 receives no treatment. Rat #2 receives an intravenous injection of 250 mg of heparin in one ml of distilled water. […] The effect of heparin is determined using the Activated Partial Thromboplastin Time (APTT) test. This test measures the time necessary for a sample of […] taken from the tail vein to form a fibrin clot.

coagulation time = details: oral, far larger doses per unit of body weight, unprotected, laboratory animals and humans; cited from earlier work

Q: For porcine insulin, which “Ave. Blood Glucose” value (blood glucose [1]; 30 min, 25.0 mg by gavage) is on record?
A: Its value is 120 mg/dL.

Q: What about the “Ave. Blood Glucose” value (blood glucose [1]; 1 hr, 25.0 mg by gavage) of the same substance?
A: Its value is 120 mg/dL.

Q: And the “Ave. Blood Glucose” value (blood glucose [1]; 1.5 hr, 25.0 mg by gavage)?
A: Its value is 124 mg/dL.

Q: And the “Ave. Blood Glucose” value (blood glucose [1]; 2 hr, 25.0 mg by gavage)?
A: Its value is 120 mg/dL.

Q: What about the “Ave. Blood Glucose” value (blood glucose [1]; 3 hr, 25.0 mg by gavage) of the same substance?
A: The value was 116 mg/dL.

Q: And the “Ave. Blood Glucose” value (blood glucose [1]; 4 hr, 25.0 mg by gavage)?
A: Its value is 111 mg/dL.

Q: And the “Ave. Blood Glucose” value (blood glucose [1]; 6 hr, 25.0 mg by gavage)?
A: Its value is 123 mg/dL.

Q: And the “Ave. Blood Glucose” value (blood glucose [1]; Predose, 25.0 mg in 1.0 ml water by gavage)?
A: The value was 113 mg/dL.

Q: What about the “Blood Glucose” value (blood glucose [2]; 0 hrs) of the same substance?
A: The value was 92.7 mg/dL.

Q: And the “effect on blood glucose levels” value (blood glucose [2])?
A: Its value is “no significant effect”.

Q: And the “Blood Glucose” value (blood glucose [2]; 1 hrs)?
A: The value was 98.2 mg/dL.

Q: And the “Blood Glucose” value (blood glucose [2]; 2 hrs)?
A: The value was 95.8 mg/dL.

Q: And the “Blood Glucose” value (blood glucose [2]; 3 hrs)?
A: Its value is 86.2 mg/dL.

Q: And the “Blood Glucose” value (blood glucose [2]; 4 hrs)?
A: The value was 91 mg/dL.

Q: And the “Blood Glucose” value (blood glucose [2]; 6 hrs)?
A: Its value is 89.8 mg/dL.

Q: And the “Blood Glucose” value (blood glucose [2]; 8 hrs)?
A: Its value is 91 mg/dL.

Q: And the “Blood Glucose” value (blood glucose [2]; 12 hrs)?
A: The value was 92 mg/dL.

Q: What about the “Blood Glucose” value (blood glucose [2]; 24 hrs) of the same substance?
A: The value was 92 mg/dL.

Q: And the “Blood Glucose” value (blood glucose [2]; .5 hrs)?
A: The value was 95.5 mg/dL.

Q: And the “% Decrease from Baseline Blood Glucose” value (blood glucose [3]; 0.5 hrs, 0.125 mg SC)?
A: Its value is 5%.

Q: And the “% Decrease from Baseline Blood Glucose” value (blood glucose [3]; 0.5 hrs, 0.25 mg SC)?
A: Its value is 28%.

Q: What about the “% Decrease from Baseline Blood Glucose” value (blood glucose [3]; 1 hrs, 0.125 mg SC) of the same substance?
A: The value was 17%.

Q: What about the “% Decrease from Baseline Blood Glucose” value (blood glucose [3]; 1 hrs, 0.25 mg SC) of the same substance?
A: The value was 55%.

Q: And the “% Decrease from Baseline Blood Glucose” value (blood glucose [3]; 1.5 hrs, 0.125 mg SC)?
A: Its value is 27%.

Q: And the “% Decrease from Baseline Blood Glucose” value (blood glucose [3]; 1.5 hrs, 0.25 mg SC)?
A: The value was 72%.

Q: And the “% Decrease from Baseline Blood Glucose” value (blood glucose [3]; 2 hrs, 0.125 mg SC)?
A: The value was 45%.

Q: And the “% Decrease from Baseline Blood Glucose” value (blood glucose [3]; 2 hrs, 0.25 mg SC)?
A: The value was 77%.

Q: What about the “% Decrease from Baseline Blood Glucose” value (blood glucose [3]; 3 hrs, 0.125 mg SC) of the same substance?
A: Its value is 47%.

Q: What about the “% Decrease from Baseline Blood Glucose” value (blood glucose [3]; 3 hrs, 0.25 mg SC) of the same substance?
A: The value was 84%.

Q: And the “% Decrease from Baseline Blood Glucose” value (blood glucose [3]; 4 hrs, 0.125 mg SC)?
A: The value was 29%.

Q: What about the “% Decrease from Baseline Blood Glucose” value (blood glucose [3]; 4 hrs, 0.25 mg SC) of the same substance?
A: Its value is 79%.

Q: What about the “% Decrease from Baseline Blood Glucose” value (blood glucose [3]; 6 hrs, 0.125 mg SC) of the same substance?
A: Its value is 8%.

Q: What about the “% Decrease from Baseline Blood Glucose” value (blood glucose [3]; 6 hrs, 0.25 mg SC) of the same substance?
A: Its value is 34%.

Q: And the “% Decrease from Baseline Blood Glucose” value (blood glucose [3]; 8 hrs, 0.125 mg SC)?
A: The value was -8%.

Q: And the “% Decrease from Baseline Blood Glucose” value (blood glucose [3]; 8 hrs, 0.25 mg SC)?
A: Its value is 4%.

Q: And the “% Decrease from Baseline Blood Glucose” value (blood glucose [3]; 12 hrs, 0.125 mg SC)?
A: The value was -8%.

Q: What about the “% Decrease from Baseline Blood Glucose” value (blood glucose [3]; 12 hrs, 0.25 mg SC) of the same substance?
A: The value was 3%.

Q: And the “% Decrease from Baseline Blood Glucose” value (blood glucose [3]; 24 hrs, 0.125 mg SC)?
A: Its value is -8%.

Q: What about the “% Decrease from Baseline Blood Glucose” value (blood glucose [3]; 24 hrs, 0.25 mg SC) of the same substance?
A: Its value is -7%.

Q: And the “% Decrease from Baseline Blood Glucose” value (blood glucose [3]; 48 hrs, 0.125 mg SC)?
A: The value was -8%.

Q: What about the “% Decrease from Baseline Blood Glucose” value (blood glucose [3]; 48 hrs, 0.25 mg SC) of the same substance?
A: Its value is -5%.

Q: What about the “reduction of blood glucose levels” value (blood glucose [4]) of the same substance?
A: Its value is “no detectable reduction of blood glucose levels”.

Q: Which degradation in solution [5] does the source give for insulin here?
A: The degradation in solution was “degrade within a few days”.

Q: For bovine insulin, which “reduction of blood glucose levels” value (blood glucose [4]) is on record?
A: Its value is “no detectable reduction of blood glucose levels”.

Q: Which results are given for heparin?
A: Time to Coagulation in the APTT Test ([6]; 1 hr, IV 250 mg): 54 s; Time to Coagulation in the APTT Test ([6]; 2 hrs, IV 250 mg): > 300 s; Time to Coagulation in the APTT Test ([6]; Predose, IV group, 250 mg): 25 s; increase in coagulation time (coagulation time): no detectable increase in coagulation time
